Assay results reported in patent publication US20210269440A1 (BETTA PHARMACEUTICALS CO., LTD, priority 2018, published 2021).

Target: T1, PD-1/PD-L1 protein/protein interaction (Homo sapiens, UniProt Q9NZQ7)
T1 construct: Recombinant human PD-L1 protein (19-238) with a His-tag at the C-terminus; purchased AcroBiosystems PD1-H5229 (PD-L1); PD1-H5257 (PD-1)
Test: PD-1/PD-L1 homogenous time-resolved fluorescence (HTRF) binding assay
Conditions: not given
Protocol: Resolved Fluorescence (HTRF) Binding Assay
The assays were conducted in a standard black 384-well polystyrene plate with a final volume of […]. Inhibitors were first serially diluted in DMSO and then added to the plate wells before the addition of other reaction components. The final concentration of DMSO in the assay was 1%. The assays were carried out at 25° C. in the PBS buffer (pH 7.4) with 0.05% Tween-20 and 0.1% BSA. […] Plates were centrifuged and proteins were preincubated with inhibitors for 40 min. The incubation was followed by the addition of 10 μL of HTRF detection buffer supplemented with Europium cryptate-labeled anti-human IgG (PerkinElmer-AD0212) specific for Fc and anti-His antibody conjugated to SureLight®—Allophycocyanin (APC, PerkinElmer-AD0059H). After centrifugation, the plate was incubated at 25° C. for 60 min. […] Final concentrations in the assay were […] PD1, 10 nM PD-L1, 1 nM europium anti-human IgG and 20 nM anti-His-Allophycocyanin. IC50 determination was performed by fitting the curve of percent control activity versus the log of the inhibitor concentration using the GraphPad Prism 5.0 software.

T1 sequence (Q9NZQ7 19-238): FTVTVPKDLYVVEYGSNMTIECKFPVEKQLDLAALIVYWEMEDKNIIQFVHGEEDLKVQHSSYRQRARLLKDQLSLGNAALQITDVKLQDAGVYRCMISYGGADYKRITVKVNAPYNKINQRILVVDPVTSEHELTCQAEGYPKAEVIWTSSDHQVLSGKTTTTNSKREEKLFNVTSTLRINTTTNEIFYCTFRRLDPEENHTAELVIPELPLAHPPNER

| Compound | IC50 [nM] |
| --- | --- |
| Cc1c(Nc2nccc3cc(CN4CCCCC4C(=O)O)cnc23)cccc1-c1cccc(OCCCN(C)Cc2ccccc2)c1C (stereo not shown) [Compound 22, 1-((8-((3′-(3-(benzyl(methyl)amino)propoxy)-2,2′-dimethyl-[1,1′-biphenyl]-3-yl)amino)-1,7-naphthyridin-3-yl)methyl)piperidine-2-carboxylic acid] | 2 to 10 |
| Cc1c(CCCCN2CCOCC2)cccc1-c1cccc(Nc2nccc3cc(CN4CCCCC4C(=O)O)cnc23)c1C (stereo not shown) [Compound 58, 1-((8-((2,2′-dimethyl-3′-(4-morpholinobutyl)-[1,1′-biphenyl]-3-yl)amino)-1,7-naphthyridin-3-yl)methyl)piperidine-2-carboxylic acid] | 2 to 10 |
| Cc1c(Nc2nccc3cc(CN4CCCCC4C(=O)O)cnc23)cccc1-c1ccc2cc(CCN3CCOCC3)[nH]c2c1 (stereo not shown) [Compound 35, 1-((8-((2-methyl-3-(2-(2-morpholinoethyl)-1H-indol-6-yl)phenyl)amino)-1,7-naphthyridin-3-yl)methyl)piperidine-2-carboxylic acid] | > 150 |
| Cc1c(Nc2nccc3cc(CN4CCCCC4C(=O)O)cnc23)cccc1-c1cccc(OCCCN2CCCC2C(=O)O)c1C (stereo not shown) [Compound 29, 1-((8-((3′-(3-(2-carboxypyrrolidin-1-yl)propoxy)-2,2′-dimethyl-[1,1′-biphenyl]-3-yl)amino)-1,7-naphthyridin-3-yl)methyl)piperidine-2-carboxylic acid] | 2 to 10 |
| COc1ccc(-c2cccc(Nc3nccc4cc(CN5CCCCC5C(=O)O)cnc34)c2C)cc1OCCCN1CCOCC1 (stereo not shown) [Compound 59, 1-((8-((4′-methoxy-2-methyl-3′-(3-morpholinopropoxy)-[1,1′-biphenyl]-3-yl)amino)-1,7-naphthyridin-3-yl)methyl)piperidine-2-carboxylic acid] | 2 to 10 |
| Cc1c(Nc2nccc3cc(CN4CCCCC4C(=O)O)cnc23)cccc1-c1cccc(OCCCN2CCCC2)c1C (stereo not shown) [Compound 18, 1-((8-((2,2′-dimethyl-3′-(3-(pyrrolidin-1-yl)propoxy)-[1,1′-biphenyl]-3-yl)amino)-1,7-naphthyridin-3-yl)methyl)piperidine-2-carboxylic acid] | < 2 |
| CCN(CC)CCCOc1cccc(-c2cccc(Nc3nccc4cc(CN5CCCCC5C(=O)O)cnc34)c2C)c1C (stereo not shown) [Compound 21, 1-((8-((3′-(3-(diethylamino)propoxy)-2,2′-dimethyl-[1,1′-biphenyl]-3-yl)amino)-1,7-naphthyridin-3-yl)methyl)piperidine-2-carboxylic acid] | < 2 |
| Cc1c(Nc2nccc3cc(CN4CCCCC4C(=O)O)cnc23)cccc1-c1cccc(OCCCNS(C)(=O)=O)c1C (stereo not shown) [Compound 27, 1-((8-((2,2′-dimethyl-3′-(3-(methylsulfonamido)propoxy)-[1,1′-biphenyl]-3-yl)amino)-1,7-naphthyridin-3-yl)methyl)piperidine-2-carboxylic acid] | > 150 |
| Cc1c(COCCN2CCOCC2)cccc1-c1cccc(Nc2nccc3cc(CN4CCCCC4C(=O)O)cnc23)c1C (stereo not shown) [Compound 47, 1-((8-((2,2′-dimethyl-3′-((2-morpholinoethoxy)methyl)-[1,1′-biphenyl]-3-yl)amino)-1,7-naphthyridin-3-yl)methyl)piperidine-2-carboxylic acid] | < 2 |
| Cc1c(/C=C/CCN2CCOCC2)cccc1-c1cccc(Nc2nccc3cc(CN4CCCCC4C(=O)O)cnc23)c1C (stereo not shown) [Compound 57, (E)-1-((8-((2,2′-dimethyl-3′-(4-morpholinobut-1-en-1-yl)-[1,1′-biphenyl]-3-yl)amino)-1,7-naphthyridin-3-yl)methyl)piperidine-2-carboxylic acid] | 2 to 10 |
| Cc1c(NC(=O)NCCN2CCOCC2)cccc1-c1cccc(Nc2nccc3cc(CN4CCCCC4C(=O)O)cnc23)c1C (stereo not shown) [Compound 53, 1-((8-((2,2′-dimethyl-3′-(3-(2-morpholinoethyl)ureido)-[1,1′-biphenyl]-3-yl)amino)-1,7-naphthyridin-3-yl)methyl)piperidine-2-carboxylic acid] | > 150 |
| Cc1c(Nc2nccc3cc(CN4CCCCC4C(=O)O)cnc23)cccc1-c1cccc(OCCN2CCOCC2)c1C (stereo not shown) [Compound 31, 1-((8-((2,2′-dimethyl-3′-(2-morpholinoethoxy)-[1,1′-biphenyl]-3-yl)amino)-1,7-naphthyridin-3-yl)methyl)piperidine-2-carboxylic acid] | 10 to 150 |
| Cc1c(Nc2nccc3cc(CN4CC(F)(F)CC4C(=O)O)cnc23)cccc1-c1cccc(OCCCN2CCOCC2)c1C (stereo not shown) [Compound 12, 1-((8-((2,2′-dimethyl-3′-(3-morpholinopropoxy)-[1,1′-biphenyl]-3-yl)amino)-1,7-naphthyridin-3-yl)methyl)-4,4-difluoropyrrolidine-2-carboxylic acid] | 10 to 150 |
| Cc1c(Nc2nccc3cc(CN4CCCCC4C(=O)O)cnc23)cccc1-c1ccc(C(F)(F)F)c(OCCCN2CCOCC2)c1 (stereo not shown) [Compound 60, 1-((8-((2-methyl-3′-(3-morpholinopropoxy)-4′-(trifluoromethyl)-[1,1′-biphenyl]-3-yl)amino)-1,7-naphthyridin-3-yl)methyl)piperidine-2-carboxylic acid] | > 150 |
| Cc1c(NCCCN2CCOCC2)cccc1-c1cccc(Nc2nccc3cc(CN4CCCCC4C(=O)O)cnc23)c1C (stereo not shown) [Compound 48, 1-((8-((2,2′-dimethyl-3′-((3-morpholinopropyl)amino)-[1,1′-biphenyl]-3-yl)amino)-1,7-naphthyridin-3-yl)methyl)piperidine-2-carboxylic acid] | 2 to 10 |
| CC(=O)NCCCOc1cccc(-c2cccc(Nc3nccc4cc(CN5CCCCC5C(=O)O)cnc34)c2C)c1C (stereo not shown) [Compound 24, 1-((8-((3′-(3-acetamidopropoxy)-2,2′-dimethyl-[1,1′-biphenyl]-3-yl)amino)-1,7-naphthyridin-3-yl)methyl)piperidine-2-carboxylic acid] | > 150 |
| Cc1c(NC(=O)CCN2CCOCC2)cccc1-c1cccc(Nc2nccc3cc(CN4CCCCC4C(=O)O)cnc23)c1C (stereo not shown) [Compound 49, 1-((8-((2,2′-dimethyl-3′-(3-morpholinopropanamido)-[1,1′-biphenyl]-3-yl)amino)-1,7-naphthyridin-3-yl)methyl)piperidine-2-carboxylic acid] | 2 to 10 |
| Cc1c(Nc2nccc3cc(CN4CCCCC4C(=O)O)cnc23)cccc1-c1cccc(OCCCN2CCC(O)C2)c1C (stereo not shown) [Compound 19, 1-((8-((3′-(3-(3-hydroxypyrrolidin-1-yl)propoxy)-2,2′-dimethyl-[1,1′-biphenyl]-3-yl)amino)-1,7-naphthyridin-3-yl)methyl)piperidine-2-carboxylic acid] | < 2 |
| Cc1ccc(-c2cccc(Nc3nccc4cc(CN5CCCCC5C(=O)O)cnc34)c2C)cc1OCCCN1CCOCC1 (stereo not shown) [Compound 42, 1-((8-((2,4′-dimethyl-3′-(3-morpholinopropoxy)-[1,1′-biphenyl]-3-yl)amino)-1,7-naphthyridin-3-yl)methyl)piperidine-2-carboxylic acid] | 2 to 10 |
| Cc1c(Nc2nccc3cc(CN4CCCCC4C(=O)O)cnc23)cccc1-c1cccc(OCCCNC2COC2)c1 (stereo not shown) [Compound 33, 1-((8-((2-methyl-3′-(3-(oxetan-3-ylamino)propoxy)-[1,1′-biphenyl]-3-yl)amino)-1,7-naphthyridin-3-yl)methyl)piperidine-2-carboxylic acid] | < 2 |
| Cc1c(Nc2nccc3cc(CN4CCCCC4C(=O)O)cnc23)cccc1-c1cccc(OCCCN2CCOCC2)c1C (stereo not shown) [Compound 5] | 3.3 |

Same assay, conditions: HTRF, recombinant human PD-1 (Fc tag) / PD-L1 (His-tag), 25° C., PBS pH 7.4; read-out: IC50

| Compound | IC50 [nM] |
| --- | --- |
| Cc1c(Nc2nccc3cc(CN4CC(O)CC4C(=O)O)cnc23)cccc1-c1cccc(OCCCN2CCOCC2)c1C (stereo not shown) [Compound 6, 1-((8-((2,2′-dimethyl-3′-(3-morpholinopropoxy)-[1,1′-biphenyl]-3-yl)amino)-1,7-naphthyridin-3-yl)methyl)-4-hydroxypyrrolidine-2-carboxylic acid] | 2.8 |
| Cc1c(Nc2nccc3cc(CNCCCC(=O)O)cnc23)cccc1-c1cccc(OCCCN2CCOCC2)c1C [Compound 8, 4-(((8-((2,2′-dimethyl-3′-(3-morpholinopropoxy)-[1,1′-biphenyl]-3-yl)amino)-1,7-naphthyridin-3-yl)methyl)amino)butanoic acid] | 0.9 |
| Cc1c(Nc2nccc3cc(CN4CCC[C@H]4C(=O)O)cnc23)cccc1-c1cccc(OCCCN2CCOCC2)c1C [Compound 3, ((8-((2,2′-dimethyl-3′-(3-morpholinopropoxy)-[1,1′-biphenyl]-3-yl)amino)-1,7-naphthyridin-3-yl)methyl)proline] | 2 |
| Cc1c(Nc2nccc3cc(CN[C@@H](CO)C(=O)O)cnc23)cccc1-c1cccc(OCCCN2CCOCC2)c1C [Compound 10, ((8-((2,2′-dimethyl-3′-(3-morpholinopropoxy)-[1,1′-biphenyl]-3-yl)amino)-1,7-naphthyridin-3-yl)methyl)serine] | 0.5 |
| Cc1c(Nc2nccc3cc(CN4CCC[C@H]4C(=O)O)cnc23)cccc1-c1ccccc1 [Compound 4, ((8-((2-methyl-[1,1′-biphenyl]-3-yl)amino)-1,7-naphthyridin-3-yl)methyl)proline] | 13 |

Same assay, conditions: R is the group comprising morpholine

| Compound | biological activity (potency), as shown in Table 1 |
| --- | --- |
| Cc1c(Nc2nccc3cc(CN4CCC[C@H]4C(=O)O)cnc23)cccc1-c1cccc(OCCCN2CCOCC2)c1C [Compound 3, ((8-((2,2′-dimethyl-3′-(3-morpholinopropoxy)-[1,1′-biphenyl]-3-yl)amino)-1,7-naphthyridin-3-yl)methyl)proline] | much more potent |
| Cc1c(Nc2nccc3cc(CN4CCCCC4C(=O)O)cnc23)cccc1-c1cccc(OCCCN2CCOCC2)c1C (stereo not shown) [Compound 5] | much more potent |
